The text below walks through data of BindingDB's records for doi:10.1021/jm1009814 (Paris-Sud University, 2010).

The structures appear in SMILES notation.

Assay [1] addresses T1, Fructose-bisphosphate aldolase (Helicobacter pylori (strain ATCC 700392 / 26695), UniProt P56109).
T1 sequence (P56109 whole entry): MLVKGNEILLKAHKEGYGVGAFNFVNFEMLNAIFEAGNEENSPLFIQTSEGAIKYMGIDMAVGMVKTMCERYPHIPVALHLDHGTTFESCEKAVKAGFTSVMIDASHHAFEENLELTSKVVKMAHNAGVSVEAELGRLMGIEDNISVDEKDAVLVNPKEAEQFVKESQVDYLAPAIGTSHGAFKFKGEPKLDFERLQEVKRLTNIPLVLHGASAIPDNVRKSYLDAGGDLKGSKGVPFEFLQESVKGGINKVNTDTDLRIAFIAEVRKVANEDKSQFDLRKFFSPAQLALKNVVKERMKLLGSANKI
In words: Inhibition of Helicobacter pylori recombinant zinc dependent class 2 Fba expressed in Escherichia coli JM109.

Assay [2] has as its target T2, Fructose-bisphosphate aldolase A (Oryctolagus cuniculus, UniProt P00883).
T2 sequence (P00883 whole entry): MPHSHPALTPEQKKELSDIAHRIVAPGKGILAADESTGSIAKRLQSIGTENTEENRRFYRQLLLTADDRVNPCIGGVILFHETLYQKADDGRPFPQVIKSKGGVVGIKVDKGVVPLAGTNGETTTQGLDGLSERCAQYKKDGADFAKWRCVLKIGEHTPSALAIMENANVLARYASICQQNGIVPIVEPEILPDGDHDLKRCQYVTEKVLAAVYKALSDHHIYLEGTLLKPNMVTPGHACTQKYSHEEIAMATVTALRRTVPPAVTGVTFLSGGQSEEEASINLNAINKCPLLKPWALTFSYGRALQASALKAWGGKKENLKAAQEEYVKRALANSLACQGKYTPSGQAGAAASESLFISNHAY
As to the kind of experiment: Inhibition of rabbit muscle […] class 1 Fba expressed in Escherichia coli.

Assay [3] addresses T3, Fructose-bisphosphate aldolase (Candida albicans (strain SC5314 / ATCC MYA-2876), UniProt Q9URB4).
T3 sequence (Q9URB4 whole entry): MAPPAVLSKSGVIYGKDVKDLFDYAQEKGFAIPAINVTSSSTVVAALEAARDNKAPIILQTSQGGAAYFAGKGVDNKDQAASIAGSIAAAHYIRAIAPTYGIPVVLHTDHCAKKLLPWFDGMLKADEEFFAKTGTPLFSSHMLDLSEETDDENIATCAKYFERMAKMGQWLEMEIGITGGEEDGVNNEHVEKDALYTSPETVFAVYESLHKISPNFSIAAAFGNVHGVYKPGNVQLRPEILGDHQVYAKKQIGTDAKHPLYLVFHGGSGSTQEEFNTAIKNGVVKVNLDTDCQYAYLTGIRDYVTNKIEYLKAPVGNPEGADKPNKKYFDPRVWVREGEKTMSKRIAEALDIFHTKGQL
As to the kind of experiment: Inhibition of Candida albicans zinc dependent class 2 Fba.

In general, Ki refers to a dissociation constant, usually derived from enzyme kinetics or from competition with a known ligand. In the case of `O=C([C@H](O)COP(=O)(O)O)[C@H](O)C(O)COP(=O)(O)O` (stereo partly drawn) [1,6-di-O-phosphono-D-fructose], the Ki in assay [1] was found to be 17 µM; in assay [2], 15 µM; in assay [3], 85 µM.
In assay [2], `CCCCCC(=O)OCCCCN(O)C(=O)COP(=O)(O)O` [4-(N-hydroxy-2-(phosphonooxy)acetamido)butyl hexanoate] came in with a Ki of 850 µM.
